Measured values as given in ChEMBL document CHEMBL3822454, “On the vasoprotective mechanisms underlying novel β-phosphorylated nitrones: Focus on free radical characterization, scavenging and NO-donation in a biological model of oxidative stress” (Eur J Med Chem, 2016).
Calls of active or inactive are those of the source. The rule behind the calls is not given here.

Assays:
[1] = Antioxidant activity assessed as AAPH free radical scavenging activity measured as trolox equivalent by TRAP assay; format: physicochemical
A549 [2] = assay: Cytotoxicity against human A549 cells assessed as reduction in cell viability measured after 48 hrs by FMCA assay; format: cell-based; details: A549, 48 h
A549 [3] = assay: Cytotoxicity against human A549 cells assessed as reduction in cell viability measured after 48 hrs by MTT assay; format: cell-based; details: A549, 48 h
[4] = Antioxidant activity assessed as inhibition of […]-xanthine oxidase system-mediated superoxide formation measured over 7 mins by lucigenin-based chemiluminescence analysis; format: physicochemical
A549 [5] = assay: Cytotoxicity against human A549 cells assessed as reduction in cell viability measured after 48 hrs by luminescence-based ATP assay; details: A549, 48 h
[6] = Antioxidant activity assessed as DPPH scavenging activity measured after 3 mins by spectrophotometric method; format: physicochemical
[7] = Cytotoxicity against BAEC assessed as reduction in cell viability measured after 24 hrs by MTT assay; set-up: species or system Bos taurus; details: cattle
[8] = biological target: Xanthine dehydrogenase/oxidase (Homo sapiens, UniProt P47989); assay: Inhibition of xanthine oxidase (unknown origin) using xanthine as substrate assessed as inhibition of uric acid formation at 1 to 100 uM after 30 mins by spectrophotometric method; details: 0.5 h
Chain of Xanthine dehydrogenase/oxidase (P47989 whole entry): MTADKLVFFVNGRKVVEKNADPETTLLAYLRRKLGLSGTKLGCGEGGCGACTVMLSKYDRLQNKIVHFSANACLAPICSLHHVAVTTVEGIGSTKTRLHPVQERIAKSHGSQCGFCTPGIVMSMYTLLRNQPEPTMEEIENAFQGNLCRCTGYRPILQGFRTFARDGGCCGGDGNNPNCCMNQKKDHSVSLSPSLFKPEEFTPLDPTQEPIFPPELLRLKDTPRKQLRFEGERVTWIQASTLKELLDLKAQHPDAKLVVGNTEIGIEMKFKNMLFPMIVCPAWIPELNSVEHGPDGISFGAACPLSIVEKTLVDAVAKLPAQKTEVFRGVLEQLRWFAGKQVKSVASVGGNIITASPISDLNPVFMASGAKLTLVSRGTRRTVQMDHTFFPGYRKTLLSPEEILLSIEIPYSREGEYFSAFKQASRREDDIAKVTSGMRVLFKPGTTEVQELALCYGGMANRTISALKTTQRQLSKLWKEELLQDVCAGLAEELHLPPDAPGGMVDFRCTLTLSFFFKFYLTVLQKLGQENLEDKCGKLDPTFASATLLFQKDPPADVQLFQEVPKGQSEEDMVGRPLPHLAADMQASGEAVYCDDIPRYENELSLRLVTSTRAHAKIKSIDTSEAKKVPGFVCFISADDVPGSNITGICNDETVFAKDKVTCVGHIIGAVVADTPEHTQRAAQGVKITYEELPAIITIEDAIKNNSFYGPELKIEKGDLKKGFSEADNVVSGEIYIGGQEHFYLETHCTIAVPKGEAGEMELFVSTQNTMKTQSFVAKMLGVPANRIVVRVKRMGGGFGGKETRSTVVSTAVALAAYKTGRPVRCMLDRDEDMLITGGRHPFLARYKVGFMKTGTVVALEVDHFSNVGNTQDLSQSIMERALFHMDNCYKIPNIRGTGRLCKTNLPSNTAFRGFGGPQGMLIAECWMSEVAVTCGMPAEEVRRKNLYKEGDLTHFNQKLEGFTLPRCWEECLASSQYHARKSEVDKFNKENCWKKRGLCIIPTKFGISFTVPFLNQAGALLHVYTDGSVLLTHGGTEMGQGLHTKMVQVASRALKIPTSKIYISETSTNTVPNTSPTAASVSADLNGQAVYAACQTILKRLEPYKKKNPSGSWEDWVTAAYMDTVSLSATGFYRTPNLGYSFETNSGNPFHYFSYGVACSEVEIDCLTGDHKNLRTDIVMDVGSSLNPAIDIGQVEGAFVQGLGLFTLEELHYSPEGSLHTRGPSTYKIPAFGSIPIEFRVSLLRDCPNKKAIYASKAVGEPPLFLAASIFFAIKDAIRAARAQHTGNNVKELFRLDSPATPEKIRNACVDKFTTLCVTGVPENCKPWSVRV

[9] = Cytotoxicity against BAEC assessed as decrease in total intracellular LDH content at 15 mM measured after 1 hr by LDH assay relative to vehicle-treated control; format: cell-based, Bos taurus; set-up: scale not given: the % may be the effect or the level left; details: cattle, 15000 µM
Aorta [10] = assay: Protection against NADPH-induced superoxide-mediated tissue damage in Sprague-Dawley rat endothelium-intact aortic rings assessed as inhibition of protein carbonyl formation at 200 uM pre-incubated for 30 mins in presence of DTC prior to NADPH addition measured after 60 mins using 7-hydrazino-4-nitrobenzo-2,1,3-oxadiazole by fluorimetric analysis; format: functional
Aorta [11] = assay: (§1) Protection against NADPH-induced superoxide-mediated tissue damage in Sprague-Dawley rat endothelium-intact aortic rings assessed as decomposition of methyl radical adduct preincubated for 30 mins at 200 uM in presence of DTC prior to NADPH addition after 60 mins followed by renewal of media with NADPH-compound mixture measured after 4 days by EPR spectroscopy relative to control; format: functional
Aorta [12] = assay: Potentiation of SNP-induced vasorelaxant activity in Sprague-Dawley rat endothelium-intact aortic rings assessed as reduction in L-phenylephrine hydrochloride-induced contraction at 200 uM relative to SNP; format: functional
Aorta [13] = assay: Protection against superoxide-mediated tissue damage in Sprague-Dawley rat endothelium-intact aortic rings assessed as methyl radical adduct formation preincubated for 30 mins at 200 uM in presence of DTC measured after 4 days by EPR spectroscopy; format: functional
Aorta [14] = assay: Toxicity in Sprague-Dawley rat endothelium-intact aortic rings at 15 mM measured after 20 mins; details: 15000 µM
[15] = Cytotoxicity against BAECs assessed as decrease in total intracellular LDH content at 15 mM measured after 3 hrs by LDH assay relative to vehicle control; format: cell-based, Bos taurus; set-up: scale not given: the % may be the effect or the level left; details: cattle, baec, 15000 µM
Aorta [16] = assay: as §1, with “as” for “as decomposition of”, “formation pre-incubated” for “preincubated”, “addition measured” for “addition”, “20 mins in presence of DPI” for “4 days”, “spectroscopy” for “spectroscopy relative to control”; format: functional
Aorta [17] = assay: (§2) Vasoprotective activity against oxidative stress-induced impairment of ACh-stimulated vasorelaxation in Sprague-Dawley rat endothelium-intact aortic rings assessed as reduction in L-phenylephrine hydrochloride-induced contraction preincubated for 10 to 20 mins in presence of xanthine-xanthine oxidase system at 200 uM prior to L-phenylephrine hydrochloride addition relative to ACh; format: functional
Aorta [18] = assay: as §2, with “system” for “system at 200 uM”, “addition” for “addition relative to ACh”; format: functional

Row | Activity [1] [equiv] | IC50 [4] [µM] | EC50 [6] [µM] | inhibition (INH) [8] | EC50 (Aorta [18]) [µM] | Compound | IC50 (A549 [2]) [µM] | IC50 (A549 [3]) [µM] | IC50 (A549 [5]) [µM] | IC10 [7] [µM] | Activity [9] [%] | inhibition (Aorta [10]) | Activity (Aorta [11]) [%] | Rmax (Aorta [12]) [%] | Activity (Aorta [13]) | Activity (Aorta [14]) | Activity [15] [%] | Activity (Aorta [16]) | Rmax (Aorta [17]) [%]
1 | 2.16 | 34.9 | 61 |  |  | COc1cc(/C=C/C(=O)O)ccc1O [FERULATE] | 2600 | 3100 | 3200 | 800 |  |  |  |  |  |  |  |  | 
2 | 0.02 | 4.1 | > 1000 | Not Active |  | CCOP(=O)(OCC)C(C)(C)/[N+]([O-])=C/c1ccc(C(=O)O)cc1 | 7900 | 7300 | 8200 | 1300 |  |  |  |  |  |  |  |  | 
3 | 2.73 | 0.1 | 17 |  |  | O=C(O)/C=C/c1ccc(O)c(O)c1 [CAFFEIC ACID] | 500 | 700 | 700 | 200 |  |  |  |  |  |  |  |  | 
4 | 1.61 | 43.3 | > 1000 | Not Active |  | CCOP(=O)(OCC)C(C)(C)/[N+]([O-])=C/c1ccc(O)cc1O |  |  |  |  | < 10 |  |  |  |  | Non-toxic |  |  | 
5 | 1.64 | 22.4 | 35 |  |  | COc1cc(/C=C/C(=O)O)cc(OC)c1O [SINAPINATE] | 4600 | 4900 | 5700 | 1200 |  |  |  |  |  |  |  |  | 
6 | 1.91 | 28.6 | 254 | Not Active | 0.0537 | CCOP(=O)(OCC)C(C)(C)/[N+]([O-])=C/c1ccc(O)c(OC)c1 | 6400 | 3900 | 4300 | 700 | < 10 | Active | < 5 | 100 | inactive | Non-toxic | 23 | inactive | 86
7 | 1.46 | 0.9 | 19 | Not Active | 0.0282 | CCOP(=O)(OCC)C(C)(C)/[N+]([O-])=C/c1cc(O)c(O)c(O)c1 | 600 | 700 | 600 | 200 | < 10 | Active | < 5 | 104 | inactive | Non-toxic | 29 | inactive | 93
8 | 2.22 | 0.2 | 22 | Not Active | 0.0407 | CCOP(=O)(OCC)C(C)(C)/[N+]([O-])=C/c1ccc(O)c(O)c1 | 1900 | 1300 | 1900 | 500 | < 10 | Active | < 5 | 103 | inactive | Non-toxic | 28 | inactive | 93

More lines, now with the values behind:

Row | Compound | Activity [1] [equiv] | IC50 [4] [µM] | EC50 [6] [µM] | inhibition (INH) [8] | EC50 (Aorta [18]) [µM] | IC50 (A549 [2]) [µM] | IC50 (A549 [3]) [µM] | IC50 (A549 [5]) [µM] | IC10 [7] [µM] | Activity [9] [%] | inhibition (Aorta [10]) | Activity (Aorta [11]) [%] | Rmax (Aorta [12]) [%] | Activity (Aorta [13]) | Activity (Aorta [14]) | Activity [15] [%] | Activity (Aorta [16]) | Rmax (Aorta [17]) [%]
9 | CCOP(=O)(OCC)C(C)(C)/[N+]([O-])=C/c1cc(O)cc(O)c1 | 0.7 | 187 | > 1000 | Not Active |  | 4900 | 7900 | 7000 | 600 | < 10 | Active | < 5 | 98 | inactive | Non-toxic | 23 | inactive | 
10 | O=C(O)c1cc(O)c(O)c(O)c1 [GALLIC ACID] | 1.18 | 0.7 | 7 |  |  | 400 | 400 | 400 | < 100 |  |  |  |  |  |  |  |  | 
11 | CCOC(=O)c1ccc(/C=[N+](\[O-])C(C)(C)P(=O)(OCC)OCC)cc1 | 0.16 | 6.8 | > 1000 | Not Active |  | 4500 | 3500 | 3600 | 400 |  |  |  |  |  |  |  |  | 
12 | CCOP(=O)(OCC)C(C)(C)/[N+]([O-])=C/c1cccc(O)c1 | 0.1 | 123 | > 1000 | Not Active |  | 7600 | 7500 | 8300 | 800 | < 10 | Active | 6 | 99 | inactive | Non-toxic | 26 | inactive | 
13 | CCOP(=O)(OCC)C(C)(C)/[N+]([O-])=C/c1cccc([N+](=O)[O-])c1 | 0.02 | 52.3 | > 1000 | Not Active |  |  |  |  |  | < 10 |  |  |  |  | Non-toxic |  |  | 
14 | CCOP(=O)(OCC)C(C)(C)/[N+]([O-])=C/c1ccccc1O | 0.25 | 33.5 | > 1000 | Not Active |  | 8200 | 9000 | 9300 | 1400 | < 10 |  |  | 99 |  | Non-toxic | 21 |  | 
15 | O=c1c(O)c(-c2ccc(O)c(O)c2)oc2cc(O)cc(O)c12 [QUERCETIN] | 6.28 | 0.5 | 13 |  |  |  |  |  |  |  |  |  |  |  |  |  |  | 
16 | CCOP(=O)(OCC)C(C)(C)/[N+]([O-])=C/c1ccc(NC(C)=O)cc1 | 0.02 | 26.3 | > 1000 | Not Active |  |  |  |  |  |  |  |  |  |  |  |  |  | 
17 | CCOP(=O)(OCC)C(C)(C)/[N+]([O-])=C/c1ccc([N+](=O)[O-])cc1 | 0.02 | 9.3 | > 1000 | Not Active |  | 1100 | 1200 | 1000 | < 100 | < 10 |  |  | 101 |  | Non-toxic | 53 |  | 
18 | CCOP(=O)(OCC)C(C)(C)/[N+]([O-])=C/c1ccc(O)cc1 | 0.65 | 60.8 | > 1000 | Not Active |  | 10500 | 13000 | 12400 | 1600 | < 10 | Active | < 5 | 99 | inactive | Non-toxic | 18 | inactive | 
19 | CCOP(=O)(OCC)C(C)NC(C)(C)C (configuration not stated) |  | > 40000 |  |  |  |  |  |  |  |  |  |  |  |  |  |  |  | 
20 | Cc1c(C)c2c(c(C)c1O)CCC(C)(C(=O)O)O2 (configuration not stated) [TROLOX] |  | 13.3 | 20 |  |  |  |  |  |  |  |  |  |  |  |  |  |  | 
